Measured values reported in ChEMBL document CHEMBL4651402, “Screening of ~5500 FDA-approved drugs and clinical candidates for anti-SARS-CoV-2 activity” (2021).

System: SARS-CoV-2
Experiment: microbe, parasite or virus in culture
Settings: Severe acute respiratory syndrome coronavirus 2, Vero C1008, 48 h

SMILES | IC50 [µM] | IC50 (read-out: pIC50 (converted)) [µM]
COc1ccccc1N1CCN(CCCC(=O)c2ccc(F)cc2)CC1 [FLUANISONE] | > 20 | > 20
COC(=O)Nc1nc2cc(C(=O)c3ccc(F)cc3)ccc2[nH]1 [FLUBENDAZOLE] | > 20 | > 20
CN(C)C1CCc2[nH]c3c(F)cc(F)cc3c2C1 (stereo unspecified) [FLUCINDOLE] | > 20 | > 20
OC(Cn1cncn1)(Cn1cncn1)c1ccc(F)cc1F [FLUCONAZOLE] | > 20 | > 20
Nc1nc(=O)[nH]cc1F [FLUCYTOSINE] | > 20 | > 20
Nc1nc(F)nc2c1ncn2[C@@H]1O[C@H](COP(=O)(O)O)[C@@H](O)[C@@H]1O [FLUDARABINE PHOSPHATE] | > 20 | > 20
O=C(C[n+]1ccn(CC(OCc2ccc(Cl)cc2Cl)c2ccc(Cl)cc2Cl)c1)c1ccc(F)cc1 (stereo unspecified) [FLUDAZONIUM] | > 20 | > 20
CN1C(=O)CN=C(c2ccccc2F)c2cc(Cl)ccc21 [FLUDIAZEPAM] | > 20 | > 20
N#Cc1c[nH]cc1-c1cccc2c1OC(F)(F)O2 [FLUDIOXONIL] | > 20 | > 20
O=C(O)c1ccccc1Nc1cccc(C(F)(F)F)c1 [FLUFENAMIC ACID] | > 20 | > 20
CC(=O)Oc1ccc(-c2ccc(F)cc2)cc1C(=O)O [FLUFENISAL] | > 20 | > 20
Cn1c(=O)c2c(ncn2CCN2CCC(C(=O)c3ccc(F)cc3)CC2)n(C)c1=O [FLUFYLLINE] | > 20 | > 20
O=C1c2ccccc2C(=O)C1c1ccc(F)cc1 [FLUINDIONE] | > 20 | > 20
CCOC(=O)c1ncn2c1CN(C)C(=O)c1cc(F)ccc1-2 [FLUMAZENIL] | > 20 | > 20
CC1CCc2cc(F)cc3c(=O)c(C(=O)O)cn1c23 (stereo unspecified) [FLUMEQUINE] | > 20 | > 20
C[C@@H]1C[C@H]2[C@@H]3C[C@H](F)C4=CC(=O)C=C[C@]4(C)[C@@]3(F)[C@@H](O)C[C@]2(C)[C@@]1(O)C(=O)CO [FLUMETHASONE] | > 20 | > 20
NC1=NCC(c2ccc(C(F)(F)F)cc2)O1 (stereo unspecified) [FLUMINOREX] | > 20 | > 20
COc1ccc(-c2nc(C(F)(F)F)[nH]c2-c2ccc(OC)cc2)cc1 [FLUMIZOLE] | > 20 | > 20
O=[N+]([O-])c1cnc(-c2ccc(F)cc2)n1CCO [FLUNIDAZOLE] | > 20 | > 20
CC1(C)O[C@@H]2C[C@H]3[C@@H]4C[C@H](F)C5=CC(=O)C=C[C@]5(C)[C@H]4[C@@H](O)C[C@]3(C)[C@]2(C(=O)CO)O1 [FLUNISOLIDE] | > 20 | > 20
CN1C(=O)CN=C(c2ccccc2F)c2cc([N+](=O)[O-])ccc21 [FLUNITRAZEPAM] | > 20 | > 20
Cc1c(Nc2ncccc2C(=O)O)cccc1C(F)(F)F [FLUNIXIN] | > 20 | > 20
CC1(C)O[C@@H]2C[C@H]3[C@@H]4C[C@H](F)C5=CC(=O)C=C[C@]5(C)[C@@]4(F)[C@@H](O)C[C@]3(C)[C@]2(C(=O)CO)O1 [FLUOCINOLONE ACETONIDE] | > 20 | > 20

SMILES | IC50 [µM] | IC50 (read-out: pIC50 (converted)) [µM]
CC(=O)OCC(=O)[C@@]12OC(C)(C)O[C@@H]1C[C@H]1[C@@H]3C[C@H](F)C4=CC(=O)C=C[C@]4(C)[C@@]3(F)[C@@H](O)C[C@@]12C [FLUOCINONIDE] | > 20 | > 20
O=c1[nH]cc(F)c(=O)[nH]1 [FLUOROURACIL] | > 20 | > 20
CNCCC(Oc1ccc(C(F)(F)F)cc1)c1ccccc1 (stereo unspecified) [FLUOXETINE] | > 20 | > 20
CN1CCN(C2=Nc3cc(F)ccc3Cc3ccccc32)CC1 [FLUPERLAPINE] | > 20 | > 20
CCCCCCCCCC(=O)OCCN1CCN(CCCN2c3ccccc3Sc3ccc(C(F)(F)F)cc32)CC1 [FLUPHENAZINE DECANOATE] | > 20 | > 20
CCCCCCC(=O)OCCN1CCN(CCCN2c3ccccc3Sc3ccc(C(F)(F)F)cc32)CC1 [FLUPHENAZINE ENANTHATE] | > 20 | > 20
Cc1ccc2c(-c3ccc(F)cc3)nc(=O)n(C(C)C)c2c1 [FLUPROQUAZONE] | > 20 | > 20
CC1(C)O[C@@H]2C[C@H]3[C@@H]4C[C@H](F)C5=CC(=O)CC[C@]5(C)[C@H]4[C@@H](O)C[C@]3(C)[C@]2(C(=O)CO)O1 [FLURANDRENOLIDE] | > 20 | > 20
CCN(CC)CCN1C(=O)CN=C(c2ccccc2F)c2cc(Cl)ccc21 [FLURAZEPAM] | > 20 | > 20
O=C(O)c1cccc2c1Nc1cc(C(F)(F)F)ccc1S2 [FLUTIAZIN] | > 20 | > 20
CCC(=O)O[C@]1(C(=O)SCF)[C@H](C)C[C@H]2[C@@H]3C[C@H](F)C4=CC(=O)C=C[C@]4(C)[C@@]3(F)[C@@H](O)C[C@@]21C [FLUTICASONE PROPIONATE] | > 20 | > 20
COCCCC/C(=N\OCCN)c1ccc(C(F)(F)F)cc1 [FLUVOXAMINE] | > 20 | > 20
CNC(=O)N1CC(Oc2cccc(C(F)(F)F)c2)C1 [FLUZINAMIDE] | > 20 | > 20
Nc1nc(=O)c2nc(CNc3ccc(C(=O)N[C@@H](CCC(=O)O)C(=O)O)cc3)cnc2[nH]1 [FOLIC ACID] | > 20 | > 20
Cc1cn[nH]c1 [FOMEPIZOLE] | > 20 | > 20
CN(CC(=O)N1CCOCC1)Cc1c(Cl)cccc1NC(=O)c1ccccc1 [FOMINOBEN] | > 20 | > 20
c1ccc(OCc2ccc(CCCN3CCOCC3)cc2)cc1 [FOMOCAINE] | > 20 | > 20
CC(CN1c2ccccc2Sc2ccc(S(=O)(=O)N(C)C)cc21)N(C)C (stereo unspecified) [FONAZINE] | > 20 | > 20
COc1cc2c(Oc3ccc(NC(=O)C4(C(=O)Nc5ccc(F)cc5)CC4)cc3F)ccnc2cc1OCCCN1CCOCC1 [FORETINIB] | > 20 | > 20
C[C@]12CCC(=O)C(O)=C1CC[C@@H]1[C@@H]2CC[C@]2(C)C(=O)CC[C@@H]12 [FORMESTANE] | > 20 | > 20
COc1ccc(-c2coc3cc(O)ccc3c2=O)cc1 [FORMONONETIN] | > 20 | > 20
O=c1[nH]cnc2c([C@@H]3N[C@H](CO)[C@@H](O)[C@H]3O)c[nH]c12 [FORODESINE] | > 20 | > 20
CC(C)CN(C[C@@H](OP(=O)(O)O)[C@H](Cc1ccccc1)NC(=O)O[C@H]1CCOC1)S(=O)(=O)c1ccc(N)cc1 [FOSAMPRENAVIR] | > 20 | > 20

SMILES | IC50 [µM] | IC50 (read-out: pIC50 (converted)) [µM]
O=C(O)P(=O)(O)O [FOSCARNET] | > 20 | > 20
Cc1ncccc1NC(=O)c1ccc2c(c1)CC[C@@H]1C[C@@](OP(=O)(O)O)(C(F)(F)F)CC[C@@]21Cc1ccccc1 [FOSDAGROCORAT] | > 20 | > 20
C[C@@H]1O[C@@H]1P(=O)(O)O [FOSFOMYCIN] | > 20 | > 20
O=C(O)CP(=O)(O)O [FOSFONET] | > 20 | > 20
O=C(O)c1ccccc1OP(=O)(O)O [FOSFOSAL] | > 20 | > 20
O=C(O)[C@@H]1C[C@@H](C2CCCCC2)CN1C(=O)CP(=O)(O)CCCCc1ccccc1 [FOSINOPRILAT] | > 20 | > 20
COc1cc(Nc2ncc(F)c(Nc3ccc4c(n3)N(COP(=O)(O)O)C(=O)C(C)(C)O4)n2)cc(OC)c1OC [FOSTAMATINIB] | > 20 | > 20
CCOP(=O)(Cc1ccc(-c2nc3ccccc3s2)cc1)OCC [FOSTEDIL] | > 20 | > 20
COc1cnc(-n2cnc(C)n2)c2c1c(C(=O)C(=O)N1CCN(C(=O)c3ccccc3)CC1)cn2COP(=O)(O)O [FOSTEMSAVIR] | > 20 | > 20
CCCc1c(OCC(O)COc2ccc3c(=O)cc(C(=O)O)oc3c2CCC)ccc(C(C)=O)c1O (stereo unspecified) [FPL-55712] | > 20 | > 20
NC[C@@H]1O[C@H](O[C@H]2[C@@H](O)[C@H](O[C@@H]3[C@@H](O)[C@H](N)C[C@H](N)[C@H]3O[C@H]3O[C@H](CN)[C@@H](O)[C@H](O)[C@H]3N)O[C@@H]2CO)[C@H](N)[C@@H](O)[C@@H]1O [FRAMYCETIN] | > 20 | > 20
O=C(CO)[C@@H](O)[C@H](O)[C@H](O)CO [FRUCTOSE] | > 20 | > 20
Cc1cccc(C)c1NC(=O)c1ccccc1C(=O)O [FTAXILIDE] | > 20 | > 20
N[C@@H](CSCCCO)C(=O)O [FUDOSTEINE] | > 20 | > 20
C[C@]12CC[C@@H]3c4ccc(O)cc4C[C@@H](CCCCCCCCC[S+]([O-])CCCC(F)(F)C(F)(F)F)[C@H]3[C@@H]1CC[C@@H]2O (stereo partly specified) [FULVESTRANT] | > 20 | > 20
O=C1OC(CN2CCOCC2)CN1/N=C/c1ccc([N+](=O)[O-])o1 (stereo unspecified) [FURALTADONE] | > 20 | > 20
CC(C(=O)O)c1cccc2c(-c3ccccc3)coc12 (stereo unspecified) [FURAPROFEN] | > 20 | > 20
O=C(O)c1cc2cc(Cc3cccnc3)ccc2o1 [FUREGRELATE] | > 20 | > 20
NS(=O)(=O)c1cc(C(=O)O)c(NCc2ccco2)cc1Cl [FUROSEMIDE] | > 20 | > 20
CC(=O)O[C@H]1C[C@@]2(C)[C@@H](C[C@@H](O)[C@H]3[C@@]4(C)CC[C@@H](O)[C@@H](C)[C@@H]4CC[C@@]32C)/C1=C(\CCC=C(C)C)C(=O)O [FUSIDIC ACID] | > 20 | > 20
C=CC(=O)N1CC[C@H](n2nc(C#Cc3cc(OC)cc(OC)c3)c3c(N)ncnc32)C1 [FUTIBATINIB] | > 20 | > 20
NCC1(CC(=O)O)CCCCC1 [GABAPENTIN] | > 20 | > 20
